Laboratory results taken from patent US20250122223A1, “HETEROCYCLIC COMPOUNDS AS UBIQUITIN SPECIFIC PROTEASE 7 INHIBITORS” (ALMAC DISCOVERY LIMITED, priority 2022, published 2025).
Where two headings read alike, the source gives them in different places.

Target: USP7 (Homo sapiens (Human), UniProt Q93009)
Test: USP7 fluorescence polarisation (FP) assay with ubiquitin-Lys-TAMRA substrate
Assay type: biochemical
Conditions: biochemical inhibition
Protocol: USP7 activity was monitored in a fluorescence polarisation (FP) homogeneous assay using the isopeptide ubiquitin-Lys-TAMRA substrate (U-558, Boston Biochem). Full-length USP7 was purchased from Boston Biochem (His6-USP7FL, E-519). Unless otherwise stated, all other reagents were purchased from Sigma-Aldrich. Enzymatic reactions were conducted in black flat-bottom low volume polystyrene 384-well plates (Grenier) and 15 μL total volume. USP7 (2.5 nM, 5 μL) was incubated in assay buffer (50 mM HEPES (pH 7.2), 150 mM NaCl, 5 mM DTT, 0.05% BSA (w/v), 0.05% CHAPS) in the presence or absence of inhibitor (5 μL). Inhibitors were stored as 10 mM DMSO stocks in an inert environment (low humidity, dark, low oxygen, room temperature) using a Storage Pod System and serial dilutions were prepared in buffer just prior to the assay (from 200 to 0.003 μM, 11 dp curve). Following incubation at room temperature for 30 min, the enzymatic reactions were initiated by dispensing the Ub substrate (50 nM, 5 μL). FP was measured every 5 min over a period of 1.5 h (within the linear range of the assay) using a Pherastar FSX (BMG Labtech) exciting at 530 nm and measuring the amount of parallel and perpendicular light at 575 nm. The FP signal was subsequently normalised to the control without compound present. Data were plotted and fitted, and the concentrations resulting in 50% inhibition (IC50) were calculated using the non-linear regression curve fitting model using GraphPad Prism.

[1] = read-out: USP7 IC50 activity (Table 3a, classes)
[2] = unit not given in Table 3b (Table 1 and key of Table 3a use μM), read-out: USP7 IC50 activity (Table 3b)

USP7, sequence (Q93009 whole entry): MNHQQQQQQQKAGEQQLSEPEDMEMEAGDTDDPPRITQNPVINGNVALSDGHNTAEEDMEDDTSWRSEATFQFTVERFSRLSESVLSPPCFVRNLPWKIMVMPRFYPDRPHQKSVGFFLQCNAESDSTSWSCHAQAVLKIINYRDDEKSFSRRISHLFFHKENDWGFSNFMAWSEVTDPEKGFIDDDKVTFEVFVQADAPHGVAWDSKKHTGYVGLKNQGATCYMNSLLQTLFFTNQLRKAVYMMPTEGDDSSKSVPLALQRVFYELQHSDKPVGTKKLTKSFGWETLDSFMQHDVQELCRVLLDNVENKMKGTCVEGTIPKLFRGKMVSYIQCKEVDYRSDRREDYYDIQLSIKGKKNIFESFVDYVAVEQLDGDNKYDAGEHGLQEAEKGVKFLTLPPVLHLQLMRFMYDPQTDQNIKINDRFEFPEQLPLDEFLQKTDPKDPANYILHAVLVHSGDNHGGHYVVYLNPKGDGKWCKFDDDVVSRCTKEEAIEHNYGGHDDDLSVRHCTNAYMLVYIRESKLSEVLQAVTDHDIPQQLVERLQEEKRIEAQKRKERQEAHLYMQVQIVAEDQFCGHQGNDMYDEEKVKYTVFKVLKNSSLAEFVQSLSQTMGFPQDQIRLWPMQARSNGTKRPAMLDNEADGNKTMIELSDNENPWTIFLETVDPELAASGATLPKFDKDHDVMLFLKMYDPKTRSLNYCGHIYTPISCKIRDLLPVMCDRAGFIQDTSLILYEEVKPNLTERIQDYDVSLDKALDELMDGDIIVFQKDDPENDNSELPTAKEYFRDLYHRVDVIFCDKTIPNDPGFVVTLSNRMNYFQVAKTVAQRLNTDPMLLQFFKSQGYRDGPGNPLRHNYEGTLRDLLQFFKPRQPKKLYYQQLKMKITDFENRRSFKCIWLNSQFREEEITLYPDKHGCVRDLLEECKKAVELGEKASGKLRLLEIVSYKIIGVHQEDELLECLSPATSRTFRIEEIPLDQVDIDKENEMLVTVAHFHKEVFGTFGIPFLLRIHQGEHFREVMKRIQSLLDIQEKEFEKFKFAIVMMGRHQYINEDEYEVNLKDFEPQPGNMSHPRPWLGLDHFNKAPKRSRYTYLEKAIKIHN

Work on O=C(c1ccc(Cl)cc1)N1CCC(O)(Cn2cnc3c(cc(Cl)n3-c3ccc([C@@H]4CO[C@@H](C(F)(F)F)CN4)cc3)c2=O)CC1 (racemic) [Example 9, rac-6-Chloro-3-((1-(4-chlorobenzoyl)-4-hydroxypiperidin-4-yl)methyl)-7-(4-((3R,6R)-6-(trifluoromethyl)morpholin-3-yl)phenyl)-3,7-dihydro-4H-pyrrolo[2,3-d]pyrimidin-4-one] yielded an IC50 [1] of 0.25 to 2 µM and an IC50 [2] of 0.42 µM.

Work on C[C@H]1CN[C@H](c2ccc(-n3c(Cl)cc4c(=O)n(CC5(O)CCN(C(=O)c6ccc(F)c(F)c6)CC5)cnc43)cc2)CO1 [Example 37, 6-Chloro-3-((1-(3,4-difluorobenzoyl)-4-hydroxypiperidin-4-yl)methyl)-7-(4-((3R,6S)-6-methylmorpholin-3-yl)phenyl)-3,7-dihydro-4H-pyrrolo[2,3-d]pyrimidin-4-one] yielded an IC50 [1] of 0.25 to 2 µM and an IC50 [2] of 0.254 µM.

CC1(C)CN[C@H](c2ccc(-n3c(Cl)cc4c(=O)n(CC5(O)CCN(C(=O)C6(C)CC6)CC5)cnc43)cc2)CO1 (single isomer, unassigned) [Example 98, (R)-6-Chloro-7-(4-(6,6-dimethylmorpholin-3-yl)phenyl)-3-((4-hydroxy-1-(1-methylcyclopropane-1-carbonyl)piperidin-4-yl)methyl)-3,7-dihydro-4H-pyrrolo[2,3-d]pyrimidin-4-one or (S)-6-chloro-7-(4-(6,6-dimethylmorpholin-3-yl)phenyl)-3-((4-hydroxy-1-(1-methylcyclopropane-1-carbonyl)piperidin-4-yl)methyl)-3,7-dihydro-4H-pyrrolo[2,3-d]pyrimidin-4-one] was tested, and the IC50 [1] was < 0.1 µM and the IC50 [2] was 0.045 µM.

Molecule O=C(c1ccc(Cl)cc1)N1CCC(O)(Cn2cnc3c(cc(Cl)n3-c3ccc([C@H]4CO[C@H](C5CC5)CN4)cc3)c2=O)CC1 (single isomer, unassigned) [Example 61] has an IC50 [1] of 0.1 to 0.25 µM and an IC50 [2] of 0.128 µM.

Cc1cc(Cl)ccc1C(=O)N1CCC(O)(Cn2cnc3c(cc(Cl)n3-c3ccc([C@@H]4CO[C@@H](C)CN4)cc3)c2=O)CC1 [Example 90, 6-Chloro-3-((1-(4-chloro-2-methylbenzoyl)-4-hydroxypiperidin-4-yl)methyl)-7-(4-((3R,6S)-6-methylmorpholin-3-yl)phenyl)-3,7-dihydro-4H-pyrrolo[2,3-d]pyrimidin-4-one] gave an IC50 [1] of 0.25 to 2 µM and an IC50 [2] of 0.293 µM.

Work on C[C@H]1CN[C@H](c2ccc(-n3c(Cl)cc4c(=O)n(CC5(O)CCN(C(=O)c6cccc(F)c6)CC5)cnc43)cc2)CO1 [Example 38, 6-Chloro-3-((1-(3-fluorobenzoyl)-4-hydroxypiperidin-4-yl)methyl)-7-(4-((3R,6S)-6-methylmorpholin-3-yl)phenyl)-3,7-dihydro-4H-pyrrolo[2,3-d]pyrimidin-4-one] yielded an IC50 [1] of 0.25 to 2 µM and an IC50 [2] of 0.302 µM.

In the case of Cc1cc(-n2c(Cl)cc3c(=O)n(CC4(O)CCN(C(=O)c5ccc(C(F)(F)F)cc5)CC4)cnc32)ccc1[C@H]1CO[C@H](C)CN1 [Example 56, 6-Chloro-3-((4-hydroxy-1-(4-(trifluoromethyl)benzol)piperidin-4-yl)methyl)-7-(3-methyl-4-((3S,6R)-6-methylmorpholin-3-yl)phenyl)-3,7-dihydro-4H-pyrrolo[2,3-d]pyrimidin-4-one], the IC50 [1] is reported as 0.1 to 0.25 µM and the IC50 [2] is reported as 0.113 µM.

O=C(C[C@H](c1ccccc1)C(F)(F)F)N1CCC(O)(Cn2cnc3c(cc(Cl)n3-c3ccc([C@H]4COCCN4)c(C(F)(F)F)c3)c2=O)CC1 (mixture of isomers) [Example 87, 6-Chloro-3-((4-hydroxy-1-((R)-4,4,4-trifluoro-3-phenylbutanoyl)piperidin-4-yl)methyl)-7-(4-((S)-morpholin-3-yl)-3-(trifluoromethyl)phenyl)-3,7-dihydro-4H-pyrrolo[2,3-d]pyrimidin-4-one and 6-chloro-3-((4-hydroxy-1-((R)-4,4,4-trifluoro-3-phenylbutanoyl)piperidin-4-yl)methyl)-7-(4-((R)-morpholin-3-yl)-3-(trifluoromethyl)phenyl)-3,7-dihydro-4H-pyrrolo[2,3-d]pyrimidin-4-one (1:1)] was tested, and the IC50 [1] was 0.25 to 2 µM and the IC50 [2] was 0.292 µM.

For Cc1ccc(C(=O)N2CCC(O)(Cn3cnc4c(cc(Cl)n4-c4ccc([C@H]5CO[C@H](C)CN5)c(C)c4)c3=O)CC2)cc1 [Example 55], the IC50 [1] was 0.1 to 0.25 µM.

Molecule CC1(C)CN[C@@H](c2ccc(-n3c(Cl)cc4c(=O)n(CC5(O)CCN(C(=O)c6ccc(Cl)cc6)CC5)cnc43)cc2)CO1 (single isomer, unassigned) [Example 23] has an IC50 [1] of 0.1 to 0.25 µM and an IC50 [2] of 0.143 µM.

C[C@@H]1OCCN[C@H]1c1ccc(-n2c(Cl)cc3c(=O)n(CC4(O)CCN(C(=O)c5ccc(Cl)cc5)CC4)cnc32)cc1 [Example 6, 6-Chloro-3-((1-(4-chlorobenzoyl)-4-hydroxypiperidin-4-yl)methyl)-7-(4-((2S,3S)-2-methylmorpholin-3-yl)phenyl)-3,7-dihydro-4H-pyrrolo[2,3-d]pyrimidin-4-one] was tested, and the IC50 [1] was < 0.1 µM and the IC50 [2] was 0.05 µM.

With C[C@H]1CN[C@H](c2ccc(-n3c(Cl)cc4c(=O)n(CC5(O)CCN(C(=O)C(C6CC6)C6CC6)CC5)cnc43)cc2)CO1 [Example 99, 6-Chloro-3-((1-(2,2-dicyclopropylacetyl)-4-hydroxypiperidin-4-yl)methyl)-7-(4-((3R,6S)-6-methylmorpholin-3-yl)phenyl)-3,7-dihydro-4H-pyrrolo[2,3-d]pyrimidin-4-one] the IC50 [1] was 0.25 to 2 µM and the IC50 [2] was 0.263 µM.

O=C(c1ccc(Cl)cc1)N1CCC(O)(Cn2cnc3c(cc(Cl)n3-c3ccc(C4COC5CC5N4)cc3)c2=O)CC1 (centres unmarked) [Example 60, 7-(4-(2-Oxa-5-azabicyclo[4.1.0]heptan-4-yl)phenyl)-6-chloro-3-((1-(4-chlorobenzoyl)-4-hydroxypiperidin-4-yl)methyl)-3,7-dihydro-4H-pyrrolo[2,3-d]pyrimidin-4-one] gave an IC50 [1] of 0.25 to 2 µM and an IC50 [2] of 0.313 µM.

O=C(C[C@H](c1ccccc1)C(F)F)N1CCC(O)(Cn2cnc3c(cc(Cl)n3-c3ccc([C@@H]4COCCN4)cc3)c2=O)CC1 (single isomer, unassigned) [Example 85] was tested, and the IC50 [1] was < 0.1 µM and the IC50 [2] was 0.006 µM.

For C[C@H]1CN[C@H](c2ccc(-n3c(Cl)cc4c(=O)n(CC5(O)CCN(C(=O)[C@@]6(C)C[C@@H]6C(F)(F)F)CC5)cnc43)cc2)CO1 (single isomer, unassigned) [Example 33, 6-Chloro-3-((4-hydroxy-1-((1R,2R)-1-methyl-2-(trifluoromethyl)cyclopropane-1-carbonyl)piperidin-4-yl)methyl)-7-(4-((3R,6S)-6-methylmorpholin-3-yl)phenyl)-3,7-dihydro-4H-pyrrolo[2,3-d]pyrimidin-4-one or 6-chloro-3-((4-hydroxy-1-((1S,2S)-1-methyl-2-(trifluoromethyl)cyclopropane-1-carbonyl)piperidin-4-yl)methyl)-7-(4-((3R,6S)-6-methylmorpholin-3-yl)phenyl)-3,7-dihydro-4H-pyrrolo[2,3-d]pyrimidin-4-one], the IC50 [1] was 0.1 to 0.25 µM and the IC50 [2] was 0.226 µM.

C[C@@H]1CN[C@H](c2ccc(-n3c(Cl)cc4c(=O)n(CC5(O)CCN(C(=O)c6ccc(Cl)cc6)CC5)cnc43)cc2)CO1 (single isomer, unassigned) [Example 69] showed an IC50 [1] of 0.25 to 2 µM and an IC50 [2] of 0.586 µM.

CC1(C(=O)N2CCC(O)(Cn3cnc4c(cc(Cl)n4-c4ccc(C5COCCN5)c(F)c4)c3=O)CC2)CC1 (centres unmarked) [Example 72, 6-Chloro-7-(3-fluoro-4-(morpholin-3-yl)phenyl)-3-((4-hydroxy-1-(1-methylcyclopropane-1-carbonyl)piperidin-4-yl)methyl)-3,7-dihydro-4H-pyrrolo[2,3-d]pyrimidin-4-one] gave an IC50 [1] of 0.1 to 0.25 µM and an IC50 [2] of 0.211 µM.

Molecule C[C@H]1CN[C@H](c2ccc(-n3ccc4c(=O)n(CC5(O)CCN(C(=O)c6ccc(Cl)cc6)CC5)cnc43)cc2)CO1 (racemic) [Example 17, rac-3-((1-(4-Chlorobenzoyl)-4-hydroxypiperidin-4-yl)methyl)-7-(4-((3R,6S)-6-methylmorpholin-3-yl)phenyl)-3,7-dihydro-4H-pyrrolo[2,3-d]pyrimidin-4-one] has an IC50 [1] of 0.1 to 0.25 µM and an IC50 [2] of 0.175 µM.

CC1(C)CN[C@H](c2ccc(-n3c(Cl)cc4c(=O)n(CC5(O)CCN(C(=O)C6(C7CC7)CC6)CC5)cnc43)cc2)CO1 (single isomer, unassigned) [Example 40] showed an IC50 [1] of 0.1 to 0.25 µM and an IC50 [2] of 0.156 µM.

CC[C@H]1CN[C@H](c2ccc(-n3c(Cl)cc4c(=O)n(CC5(O)CCN(C(=O)C6(C)CC6)CC5)cnc43)cc2)CO1 [Example 106, 6-Chloro-7-(4-((3R,6S)-6-ethylmorpholin-3-yl)phenyl)-3-((4-hydroxy-1-(1-methylcyclopropane-1-carbonyl)piperidin-4-yl)methyl)-3,7-dihydro-4H-pyrrolo[2,3-d]pyrimidin-4-one] gave an IC50 [1] of 0.1 to 0.25 µM and an IC50 [2] of 0.121 µM.

With Cc1cc(-n2c(Cl)cc3c(=O)n(CC4(O)CCN(C(=O)c5ccc(F)cc5)CC4)cnc32)ccc1[C@H]1CO[C@H](C)CN1 [Example 47, 6-Chloro-3-((1-(4-fluorobenzoyl)-4-hydroxypiperidin-4-yl)methyl)-7-(3-methyl-4-((3S,6R)-6-methylmorpholin-3-yl)phenyl)-3,7-dihydro-4H-pyrrolo[2,3-d]pyrimidin-4-one] the IC50 [1] was < 0.1 µM and the IC50 [2] was 0.091 µM.
